Reference: patent US20170202936A1, “Identification, Optimization And Use Of Cryptic HLA-B7 Epitopes For Immunotherapy” (VAXON BIOTECH, priority 2006, published 2017)

How the values were obtained:
[1] = target: T1, HLA-B*0702 (Homo sapiens, UniProt P01889); experiment: Measurement of peptide relative affinity to HLA-B*0702 (T2-B7 cells, ME-1 mAb staining); assay type: binding
T1 construct: expressed in transfected cells; host or cells: human T2 cells transfected with HLA-B*0702 (T2-B7)
Description: The affinity of a peptide for HLA-B*0702 can be determined by methods known in the art, for instance by the assay described by Rohrlich et al., 2003. Results are expressed as relative affinity (RA) when compared to a reference peptide. […] Peptides with RA greater than 10 are therefore considered to be cryptic peptides (or epitopes).
Measurement of Peptide Relative Affinity to HLA-B*0702. The protocol used has been described previously (Rohrlich et al., 2003). Briefly, T2-B7 cells were incubated at 37° C. for 16 hours with peptides concentrations ranging from 100 μM to 0.1 μM, and then stained with ME-1 monoclonal antibody (mAb) to quantify the surface expression of HLA-B*0702. For each peptide concentration, the HLA-B*0702 specific staining was calculated as the percentage of staining obtained with 100 μM of the reference peptide CMV265-274 (R10V; […], SEQ ID NO: 9). The relative affinity (RA) was determined as: RA=(Concentration of each peptide that induces 20% of HLA-B*0702-expression/Concentration of the reference peptide that induces 20% of HLA-B*0702 expression).

[2] = tested on: HLA-B*0702 transgenic mice; experiment: CTL induction in vivo in HLA-B*0702 transgenic mice (immunogenicity, cytotoxic assay on peptide-loaded RMA-B7 targets); parameters: key to Corresponding native peptide cross-reconnaissance: + for immunogenicity or native peptide cross recognition means that the peptide induced a specific response in at least one HLA-B*0702 transgenic mouse, able to recognized the corresponding native peptide
Description: (§1) CTL Induction in vivo in HLA-B*0702 Transgenic Mice. Mice were injected subcutaneously with 100 μg of peptide emulsified in Incomplete Freund's Adjuvant (IFA) in the presence of 150 μg of the I-A^b restricted HBVcore128 T helper epitope ([…], SEQ ID NO: 10). After 11 days, 5×10^7 spleen cells were stimulated in vitro with peptide (10 μM). On day 6 of culture, the bulk responder populations were tested for specific cytotoxicity.
(§2) Cytotoxic assay. Targets were labelled with 100 μCi of Cr^51 for 60 min, plated in 96-well V-bottomed plates (3×10^3 cell/well in 100 μL of RPMI 1640 medium) and, when necessary, pulsed with peptides (1 μM) at 37° C. for 2 hours. Effectors were then added in the wells and incubated at 37° C. for 4 hours. Percentage of specific lysis was determined as: % Lysis=(Experimental Release−Spontaneous Release)/(Maximal Release−Spontaneous Release)×100.
(§3) HLA-B7 transgenic mice were vaccinated with the selected peptides, and eleven days later, their spleen cells were in vitro stimulated with the peptide.

[3] = tested on: COS-7 cells transfected with HLA-B*0702 and TERT; experiment: Peptide processing assay on COS-7 transfected cells (TNFα secretion by murine CTL); assay type: cell-based, simian; conditions: COS-7 cells transfected with HLA-B*0702 and/or TERT
Description: Peptide Processing Assay on COS-7 Transfected Cells. 2.2×10^4 simian COS-7 cells were plated in flat-bottomed 96-well plates in DMEM+10% FCS, in triplicate for each condition. Eighteen hours later, cells were transfected with 100 ng of each DNA plasmid with DEAE Dextran. After 4 hours, PBS+10% DMSO was added for 2 minutes. Transfected COS cells were incubated in DMEM+10% FCS during 40 hours and then used to stimulate murine CTL in a TNFα secretion assay.
TNFα Secretion Assay. Transfected COS-7 cells at day 4 were suspended in […] of RPMI+10% FCS and used as stimulating cells. 5×10^4 murine T cells were then added in 50 μl RPMI 10% FCS and incubated for 6 hours. Each condition was tested in triplicate. 50 μl of the supernatant was collected to measure TNFα. Standard dilutions were prepared in 50 μl with final doses of TNFα ranging from 104 to 0 pg/ml. On both the supernatants and the standard dilutions, 3×10^4 TNFα sensitive WEHI-164c13 cells in 50 μl were added. They were incubated for 16 h at 37° C. Inhibition of cell proliferation was evaluated by the MTT colorimetric method (Espevik and Nissen-Meyer, 1986).

[4] = tested on: T2-B7 cells; experiment: IFNγ intracellular staining of human CTL stimulated with peptide-loaded T2-B7 cells; assay type: cell-based; conditions: donor D5609, 4 pools; T2-B7 cells loaded with TERT444 or TERT444A1
Description: Generation of CTL from human PBMC. PBMC were collected by leukapheresis from healthy HLA-B*0702 volunteers. Dendritic cells (DC) were produced from adherent cells cultured for seven days (2×10^6 cells/ml) in the presence of 500 IU/ml GM-CSF and 500 IU/ml IL-4 (R&D Systems, Minneapolis, Minn.) in complete medium (RPMI-1640 supplemented with 10% heat inactivated human AB serum, […] L-Glutamine and antibiotics). On day seven, DC were pulsed with 10 μM peptides for 2 hrs; maturation agents Poly I:C (Sigma, Oakville, Canada) at 100 ng/ml and anti-CD40 mAb (clone G28-5, ATCC, Manassas, Va.) at 2 μg/ml were added in the culture and DCs were incubated at 37° C. overnight or up to 48 hours. Mature DC were then irradiated (3500 rads). CD8+ cells were purified by positive selection with CD8 MicroBeads (Miltenyi Biotec, Auburn, Calif.) according to the manufacturer's instructions. 2×10^5 CD8^+ cells+6×10^4 CD8^− cells were stimulated with 2×10^4 peptide pulsed DC in complete culture medium supplemented with 1000 IU/ml IL-6 and 5 IU/ml IL-12 (R&D Systems, Minneapolis, Minn.) in round-bottomed 96 well plates. From day seven, cultures were weekly restimulated with peptide-loaded DC in the presence of 20 IU/ml IL-2 (Proleukin, Chiron Corp., Emeryville, Calif.) and 10 ng/ml IL-7 (R&D Systems, Minneapolis, Minn.). […]

[5] = tested on: HLA-B*0702 transgenic mice; experiment: CTL induction in vivo in HLA-B*0702 transgenic mice (immunogenicity, cytotoxic assay on peptide-loaded RMA-B7 targets); parameters: key: +: means that a specific immunoresponse was generated at least one HLA-B*0702 transgenic mice; conditions: Table IV
Description: as §1, §2, §3

[6] = tested on: HLA-B*0702 transgenic mice; experiment: as above; parameters: key: + for immunogenicity or native peptide cross recognition means that the peptide induced a specific response in at least one HLA-B*0702 transgenic mouse, able to recognized the corresponding native peptide; conditions: Table V
Description: as §1, §2, §3

With APRRLVQLL [TERT444A1] the “Affinity for HLA-B*0702 (in words)” value [1] was “strong affinity”, the RA ([1]; class symbols, Table IV) was “+ (+ = 1 < RA < 10)” and the “Corresponding native peptide cross-reconnaissance” value ([2]; CTL induced in HLA-B*0702 transgenic mice) was “+”. The “Immunogenicity: specific CTL immune response (in words)” value ([2]; HLA-B*0702 transgenic mice) was “induced an immune response in the majority of vaccinated mice”, the “Recognition of endogenous TERT by peptide-induced murine CTL” value [3] was “recognized COS-7 cells transfected with both HLA-B*0702 and TERT but not COS-7 cells transfected with either HLA-B*0702 or TERT” and the “Intracellular IFNg production by human CTL” value [4] was “IFNg producing CTL were detected in pools 2 and 4”. For the same sequence, the Immunogenicity [5] was “+” and the Immunogenicity [6] was “+”.
